Values of other authors in patent US20190388365A1, “C[…] NEURO-DEGENERATIVE DISEASES AND SIDE-EFFECTS ASSOCIATED WITH COGNITION EFFECTING PHARMACEUTICALS” (priority 2015, published 2019).

Test system: patients receiving morphine
Details: limited clinical trials

NC(=O)C[S+]([O-])C(c1ccccc1)c1ccccc1 (racemic) [Modafinil, benzhydrylsulfinylacetamide]
effect on sleepiness and confusion associated with morphine delivery: reverses the sleepiness and even confusion associated with morphine delivery
